Patent EP1080165B1, “HYDROCARBON LIQUID FORMULATION” (MACFARLAN SMITH LIMITED, priority 1998, dated 1999)

Legend:
[1] = Alkanol co-solvents enabling introduction of BITREX at the desired level; assay type: physicochemical; details: co-solvent for BITREX in liquid hydrocarbon
[2] = Evaluation of co-solvents for a clear stable formulation of denatonium benzoate in lamp oil; assay type: physicochemical; set-up: key to Assessment: Those combinations marked as "FAIL" were observed to exhibit turbidity and insufficient stability in the amount of denaturant introduced to the lamp oil; PASS: success in obtaining a clear stable formulation of the preferred denaturant; details: for Assessment: clear stable formulation of denatonium benzoate/"BITREX" in lamp oil, only the co-solvent varied
Source text: The following Table I summarises the results of this evaluation stage, and in particular assesses the success in obtaining a clear stable formulation of the preferred denaturant (denatonium benzoate/ "BITREX"®) in a target commercial product to be denatured (lamp oil). […] In each case, the only critical variation lay in the selection of the co-solvent. Apart from the attempted use of rape seed oil, it is assumed that the co-solvent is essentially a single chemical entity.
(§1) As an illustrative example of procedure, one may prepare a 40ppm "BITREX®" doped lamp oil by simply stirring in a previously prepared 0.1% solution of "BITREX®" in the selected co-solvent TEXANOL® to a level of 4% (all amounts described herein are w/w). A similar procedure was found effective in denaturing, white spirit, dearomatised white spirit, and isoparaffin.

[3] = Denaturing of other liquid hydrocarbons with a BITREX solution in TEXANOL; assay type: physicochemical; details: 0.1% solution of BITREX in co-solvent stirred in; white spirit, dearomatised white spirit and isoparaffin
Source text: as §1

[4] = as low as; cited from earlier work
[5] = cited from earlier work

CCCCCCCCO [1-octanol]
effective in enabling introduction of the preferred aversive agent "BITREX" at the desired level [1]: effective

CCCCCCCCCCCC(=O)OCC(CC)CCCC (centres unmarked) [2-Ethylhexyllaurate]
Assessment [2]: FAIL

CCCCCCCCCC(=O)OC(C)C [Isopropyldecanoate]
Assessment [2]: FAIL

2,2,4-trimethylpentan-1,3-diol-monoisobutanoate
effective in denaturing [3]: effective
Assessment [2]: PASS
effectiveness in achieving the objective of the invention ([2]; denatonium benzoate in lamp oil, summary of Table I): highly effective

CCCCCCCCCCCCCCCCO [1-hexadecanol]
effective in enabling introduction of the preferred aversive agent "BITREX" at the desired level [1]: effective

CCCCCCCCCCCC(=O)OC(C)C [Isopropyllaurate]
Assessment [2]: FAIL

CC[N+](CC)(CC(=O)Nc1c(C)cccc1C)Cc1ccccc1 [denatonium benzoate, Denatonium benzoate]
concentration giving an acceptable level of aversive activity [4]: 10 ppm
solubility in apolar liquids [5]: extremely insoluble

CCCCC(CC)COC(=O)C(CC)CCCC (centres unmarked) [2-Ethylhexyl-2-ethylhexanoate]
Assessment [2]: FAIL
